# Data as given in ChEMBL document CHEMBL2417463, “Synthesis and identification of new flavonoids targeting liver X receptor β involved pathway as potential facilitators of Aβ clearance with reduced lipid accumulation” (J Med Chem, 2013).
# Activity calls are given as the source filed them. The calls are words filed in the database; no cut-off is given here.
# Tests used:
# Mus musculus [1] = experiment: Antialzheimer activity in double transgenic B6C3 mouse overexpressing APP swedish mutant and PSEN1dE9 assessed as upregulation of apoE protein expression in brain at 10 mg/kg, ip administered 3 times per week measured after 6 weeks by Western blot analysis relative to vehicle-treated control; type: functional; conditions: route intraperitoneal
# [2] = biological target: T1, Oxysterols receptor LXR-beta (Mus musculus) (UniProt Q60644); experiment: Agonist activity at LXRbeta in mouse RAW264.7 cells assessed as upregulation of ABCA1 protein expression after 18 to 48 hrs by Western blot analysis; type: cell-based
# T1 sequence (whole entry): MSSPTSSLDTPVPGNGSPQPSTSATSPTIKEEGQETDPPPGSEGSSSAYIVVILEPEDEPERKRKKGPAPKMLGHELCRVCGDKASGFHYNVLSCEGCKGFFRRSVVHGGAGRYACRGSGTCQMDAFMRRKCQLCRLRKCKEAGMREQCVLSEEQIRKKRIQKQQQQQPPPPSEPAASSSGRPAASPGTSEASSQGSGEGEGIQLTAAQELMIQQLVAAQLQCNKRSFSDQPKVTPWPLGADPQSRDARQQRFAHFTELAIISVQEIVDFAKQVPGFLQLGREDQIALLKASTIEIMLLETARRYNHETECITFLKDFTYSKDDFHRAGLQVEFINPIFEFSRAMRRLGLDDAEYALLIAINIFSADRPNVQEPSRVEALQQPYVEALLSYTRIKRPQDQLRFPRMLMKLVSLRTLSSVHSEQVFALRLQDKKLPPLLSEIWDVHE
# Mus musculus [3] = experiment: (§1) Antialzheimer activity in double transgenic B6C3 mouse overexpressing APP swedish mutant and PSEN1dE9 assessed as reduction of soluble amyloid beta42 level at 10 mg/kg, ip administered 3 times per week measured after 6 weeks by ELISA relative to vehicle-treated control; type: functional; parameters: scale not given: the % may be the effect or the level left; conditions: route intraperitoneal
# Mus musculus [4] = experiment: as §1, with “of” for “of soluble”, “plaque number in hippocampus” for “level”, “OC staining-based fluorescence microscopic analysis” for “ELISA”; type: functional; parameters: scale not given: the % may be the effect or the level left; conditions: route intraperitoneal
# HepG2 [5] = experiment: Induction of intracellular triglyceride accumulation in human HepG2 cells at 10 uM after 4 days relative to vehicle-treated control; type: cell-based; conditions: hepg2, 96 h
# [6] = biological target: T2, Oxysterols receptor LXR-alpha (Homo sapiens) (UniProt Q13133); experiment: Agonist activity at human LXRalpha transfected in HEK293 cells at 0.1 uM after 24 hrs by luciferase reporter gene assay relative to vehicle-treated control; type: cell-based
# T2 sequence (whole entry): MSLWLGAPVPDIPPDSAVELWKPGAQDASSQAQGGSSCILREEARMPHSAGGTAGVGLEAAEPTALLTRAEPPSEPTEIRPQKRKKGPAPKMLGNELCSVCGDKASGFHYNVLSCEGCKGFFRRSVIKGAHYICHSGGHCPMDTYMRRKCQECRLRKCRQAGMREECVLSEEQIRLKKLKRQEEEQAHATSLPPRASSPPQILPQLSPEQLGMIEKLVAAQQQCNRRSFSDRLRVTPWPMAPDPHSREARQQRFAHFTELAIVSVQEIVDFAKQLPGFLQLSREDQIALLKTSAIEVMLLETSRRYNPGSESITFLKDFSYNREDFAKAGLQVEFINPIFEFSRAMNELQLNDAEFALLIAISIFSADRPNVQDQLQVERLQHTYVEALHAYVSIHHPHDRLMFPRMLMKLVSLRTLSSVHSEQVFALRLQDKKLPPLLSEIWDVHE
# HEK293 = experiment: Cytotoxicity against HEK293 cells assessed as inhibition of cell viability at 50 uM after 48 hrs by SRB assay relative to vehicle-treated control; type: cell-based; conditions: human, hek293, 48 h
# [7] = biological target: T1, Oxysterols receptor LXR-beta (Mus musculus); experiment: Agonist activity at LXRbeta in mouse RAW264.7 cells assessed as induction of ABCA1 promoter activation after 24 hrs by Dual-Glo luciferase reporter gene assay; type: cell-based
# [8] = biological target: T1, Oxysterols receptor LXR-beta (Mus musculus); experiment: Agonist activity at LXRbeta in mouse BV2 cells assessed as upregulation of apoE protein expression at 0.1 uM after 48 hrs by Western blot analysis relative to vehicle-treated control; type: cell-based; conditions: BV-2
# Mus musculus [9] = experiment: Antialzheimer activity in double transgenic B6C3 mouse overexpressing APP swedish mutant and PSEN1dE9 assessed as upregulation of ABCA1 protein expression in brain at 10 mg/kg, ip administered 3 times per week measured after 6 weeks by Western blot analysis relative to vehicle-treated control; type: functional; conditions: route intraperitoneal
# Mus musculus [10] = experiment: as §1, with “of” for “of soluble”, “plaque number in cortex” for “level”, “OC staining-based fluorescence microscopic analysis” for “ELISA”; type: functional; parameters: scale not given: the % may be the effect or the level left; conditions: route intraperitoneal
# [11] = biological target: T1, Oxysterols receptor LXR-beta (Mus musculus); experiment: Agonist activity at LXRbeta in mouse BV2 cells assessed as upregulation of ABCA1 protein expression after 12 to 48 hrs by Western blot analysis; type: cell-based; conditions: BV-2
# Mus musculus [12] = experiment: as §1, with “of” for “of soluble”, “plaque load in cortex” for “level”, “OC staining-based fluorescence microscopic analysis” for “ELISA”; type: functional; parameters: scale not given: the % may be the effect or the level left; conditions: route intraperitoneal
# BV-2 [13] = experiment: Upregulation of NEP mRNA expression in mouse BV2 cells at 0.01 to 1 uM after 18 hrs by real-time qPCR analysis; type: functional, cell-based
# Mus musculus [14] = experiment: as §1, with “of” for “of soluble”, “plaque load in hippocampus” for “level”, “OC staining-based fluorescence microscopic analysis” for “ELISA”; type: functional; parameters: scale not given: the % may be the effect or the level left; conditions: route intraperitoneal
# HepG2 [15] = experiment: Induction of intracellular triglyceride accumulation in human HepG2 cells at 1 uM after 4 days relative to vehicle-treated control; type: cell-based; conditions: hepg2, 96 h
# [16] = biological target: T1, Oxysterols receptor LXR-beta (Mus musculus); experiment: Agonist activity at LXRbeta in mouse BV2 cells assessed as degradation of intracellular soluble amyloid beta42 at 0.1 uM preincubated for 18 hrs followed by soluble amyloid beta42 addition measured after 24 hrs by ELISA relative to vehicle-treated control; type: cell-based; conditions: BV-2
# Mus musculus [17] = experiment: as §1, with “of” for “of soluble”, “beta plaque load in brain” for “beta42 level”, “thioflavin S staining-based fluorescence microscopic analysis” for “ELISA”; type: functional, organism-based; parameters: dose 10 mg/kg
# [18] = biological target: T1, Oxysterols receptor LXR-beta (Mus musculus); experiment: Agonist activity at LXRbeta in mouse RAW264.7 cells assessed as induction of ABCA1 promoter activation at 1 uM after 24 hrs by Dual-Glo luciferase reporter gene assay relative to vehicle-treated control; type: cell-based
# HepG2 [19] = experiment: Cytotoxicity against human HepG2 cells assessed as inhibition of cell viability at 50 uM after 48 hrs by SRB assay relative to vehicle-treated control; type: cell-based; conditions: hepg2, 48 h, 50 µM
# Mus musculus [20] = experiment: Antialzheimer activity in double transgenic B6C3 mouse overexpressing APP swedish mutant and PSEN1dE9 assessed as reduction of insoluble amyloid beta42 level at 10 mg/kg, ip administered 3 times per week measured after 6 weeks by ELISA relative to vehicle-treated control; type: functional; parameters: scale not given: the % may be the effect or the level left; conditions: route intraperitoneal
# BV-2 [21] = experiment: Cytotoxicity against mouse BV2 cells assessed as inhibition of cell viability at 50 uM after 48 hrs by SRB assay relative to vehicle-treated control; type: cell-based; conditions: bv-2, 48 h
# BV-2 [22] = experiment: Upregulation of IDE mRNA expression in mouse BV2 cells at 0.01 to 1 uM after 18 hrs by real-time qPCR analysis; type: functional, cell-based
# [23] = biological target: T1, Oxysterols receptor LXR-beta (Mus musculus); experiment: Agonist activity at LXRbeta in mouse BV2 cells assessed as degradation of intracellular soluble amyloid beta42 at 1 uM preincubated for 18 hrs followed by soluble amyloid beta42 addition measured after 24 hrs by ELISA relative to vehicle-treated control; type: cell-based; conditions: BV-2
structure (smiles),measurement,setting,value
Cc1ccc(/C=C/C(=O)c2ccc(N)cc2O)o1,fold change (FC),Mus musculus [1],1.6
same,Activity,[2],Dose-dependent effect
same,Activity,Mus musculus [3],31%
same,Activity,Mus musculus [4],20%
same,Activity,HepG2 [5],-0.3%
same,fold change (FC),[6],0.99
same,Activity,HEK293,Non-toxic
same,Activity,[7],Dose-dependent effect
same,fold change (FC),[8],1.6
same,fold change (FC),Mus musculus [9],2.3
same,Activity,Mus musculus [10],30%
same,Activity,[11],Dose-dependent effect
same,Activity,Mus musculus [12],30%
same,Activity,BV-2 [13],inactive
same,Activity,Mus musculus [14],28%
same,Activity,HepG2 [15],-0.3%
same,Activity,[16],52%
same,Activity,Mus musculus [17],Active
same,fold change (FC),[18],2.09
same,Activity,HepG2 [19],Non-toxic
same,Activity,Mus musculus [20],26%
same,Activity,BV-2 [21],Non-toxic
same,Activity,BV-2 [22],inactive
same,Activity,[23],59%
